In brackets after ≈: the same amount, converted by molar mass.
Columns and labels:
Assay type in all cases: in vivo
[1] = tested on: Bemisia tabaci (Gennadius) nymphs; experiment: Joint toxicity of I-72 + pyrifluquinazon, Example 77, Table 77; conditions: A = compound I-72, B = pyrifluquinazon; cotton leaf-disk spraying; 96 hours
Method: (§1) Test target: Bemisia tabaci (Gennadius) nymphs, a sensitive strain reared indoors.
(§2) Preparation of the pesticide solution: according to different test requirements, the test samples were accurately weighed respectively with an electronic analytical balance. The technical pesticides were dissolved in acetone, and then diluted with 0.1% Tween 80 water into a series of pesticide solutions with a certain concentration gradient according to the experimental design dosage.
(§3) Experimental method: first, cotton leaves with neat and consistent Bemisia tabaci (Gennadius) nymphs were selected and made into leaf disks, with about 20 insects on each leaf disk. Then, they were evenly sprayed with the pesticide solution in the order from low dosage to high dosage according to the experimental design, with 1.5 mL for each leaf and 3 replicates for each treatment. In addition, a blank control was set up.
(§4) The treated test materials were placed in an observation room, and the temperature, humidity and illumination of the observation room could be adjusted as needed. The number of dead and live insects was investigated 96 hours later. […] Then, the co-toxicity coefficient of each ratio was calculated using the Sun Y-P method to evaluate the mixing effect (the same as in Example 1).

[2] = tested on: adult Tetranychus cinnabarinus (Boisduval); experiment: Joint toxicity of I-72 + pyridaben, Example 84, Table 84; conditions: 72 h
Method: Test target: adult Tetranychus cinnabarinus (Boisduval), a sensitive strain reared indoors.
as §2
(§5) Experimental method: the activity of the mixture against the adult Tetranychus cinnabarinus (Boisduval) was determined by adopting the potted-seedling spraying method. First, the adult Tetranychus cinnabarinus of uniform size were transferred onto the leaves of kidney bean seedlings at the stage when the first pair of true leaves was fully expanded. After the adult mites had stabilized, the base number was counted. Then, the uniform spraying was performed with the pesticide solution in the order from low to high dose according to the experimental design, with 1.5 mL for each seedling and 3 replicates for each treatment. […]
as §4, with “needed.” for “needed. The number of dead and live insects was investigated 96 hours later.”, “effect,” for “effect (the same”, “1.” for “1).”

[3] = tested on: 3rd-instar larvae of Agrotis ipsilon (Rottemberg); experiment: Joint toxicity of I-72 + SYP-1620, fludioxonil, insect-dipping, Example 80, Table 80
Method: as §2
(§6) The target insects were dipped into the pesticide solution for 10 s and then taken out. Excess pesticide solution was absorbed with filter paper. […] A treatment without the pesticide was set as the blank control.
(§7) The number of dead and live insects was investigated 72 hours later. The corrected mortality rate was calculated using the Abbott's formula, and statistical analysis was performed with the DPS data processing software to obtain the toxicity regression equation and LC50 value of each single test pesticide and each mixture of different ratios.

[4] = tested on: Aphis gossypii Glover nymphs; experiment: Joint toxicity of I-72 + flonicamid, Example 74, Table 74; conditions: A = compound I-72, B = flonicamid; cotton leaf spraying; 48 hours
Method: Test target: Aphis gossypii Glover nymphs, a sensitive strain reared indoors.
as §2
as §3, with “uniform” for “neat”, “Aphis gossypii” for “Bemisia tabaci (Gennadius) nymphs”, “selected,” for “selected and made into leaf disks,”, “30-40” for “20”, “leaf.” for “leaf disk.”
as §4, with “48” for “96”

[5] = tested on: Thrips flavus Schrank nymphs; experiment: Joint toxicity of I-72 + flonicamid, Example 78, Table 78; conditions: A = compound I-72, B = flonicamid; eggplant seedling spraying; 48 hours
Method: Test target: Thrips flavus Schrank nymphs.
as §2
Experimental method: first, eggplant seedlings with Thrips flavus Schrank were selected, and the base number was counted. Then, uniform spraying was performed with the pesticide solution in the order from low to high doses according to the experimental design, with 2 mL for each seedling and 3 replicates for each treatment. In addition, a blank control was set up.
as §4, with “48” for “96”

[6] = tested on: 3rd-instar larvae of Agrotis ipsilon (Rottemberg); experiment: whole plant or invertebrate; conditions: A = compound I-72, B = metalaxyl-M; insect-dipping; 72 hours
Method: Test conditions: temperature: 24-26° C., humidity: RH 60%, and illumination: L:D=14:10
as §2, §6, §7

[7] = tested on: Myzus persicae (Sulzer) nymphs; experiment: Joint toxicity of I-72 + pymetrozine, Example 73, Table 73; conditions: in Brassica oleracea, 48 h
Method: Test target: Myzus persicae (Sulzer) nymphs, a sensitive strain reared indoors.
as §2
(§8) Experimental method: first, cabbage leaves with uniform and consistent Myzus persicae (Sulzer) were selected, with about 30-40 insects on each leaf. Then, they were evenly sprayed with the pesticide solution in the order from low dosage to high dosage according to the experimental design, with 1.5 mL of the solution for each leaf and 3 replicates for each treatment. In addition, a blank control was set up.
as §4, with “48” for “96”, “effect,” for “effect (the same”, “1.” for “1).”

[8] = tested on: 3rd-instar larvae of Ostrinia furnacalis Guenee; experiment: Joint toxicity of I-72 + pymetrozine, Example 79, Table 79; conditions: in Zea mays, 72 h
Method: Test target: 3rd-instar larvae of Ostrinia furnacalis Guenee.
as §2
Experimental method: first, tender corn stems were selected and dipped in the prepared pesticide solution for 10 s in the order from low dosage to high dosage according to the experimental design. After natural air-drying in the shade, they were placed in a 9-cm-diameter Petri dish with filter paper, and uniform and healthy test insects were introduced, with 10 insects for each treatment and 3 replicates for each treatment. In addition, a blank control was set up.
as §4, with “72” for “96”

[9] = tested on: Bemisia tabaci (Gennadius) nymphs; experiment: Joint toxicity of I-72 + thiacloprid, Example 71, Table 71; conditions: in Gossypium hirsutum, 96 h
Method: as §1, §2, §3, §4

[10] = tested on: Nilaparvata lugens (Stal) nymphs; experiment: Joint toxicity of I-72 + triflumezopyrim, Example 75, Table 75; conditions: A = compound I-72, B = triflumezopyrim; potted-seedling spraying; 72 hours
Method: Test target: Nilaparvata lugens (Stal) nymphs, a sensitive strain reared indoors.
as §2
Experimental method: the activity of the mixture against the Nilaparvata lugens (Stal) nymphs was determined by adopting the potted-seedling spraying method. First, rice seedlings were planted in culture pots. Uniform spraying was performed with the pesticide solution in the order from low dosage to high dosage according to the experimental design, with 2 mL for each seedling. Then, Nilaparvata lugens nymphs of uniform size were transferred onto the rice seedlings, with 3 replicates for each treatment. In addition, a blank control was set up.
as §4, with “72” for “96”

[11] = tested on: adult Tetranychus urticae Koch; experiment: Joint toxicity of I-72 + cyetpyrafen, Example 85, Table 85; conditions: A = compound I72, B = cyetpyrafen; potted-seedling spraying; 72 hours
Method: Test target: adult Tetranychus urticae Koch, a sensitive strain reared indoors.
as §2
as §5, with “urticae Koch” for “cinnabarinus (Boisduval)”, “urticae Koch” for “cinnabarinus”
as §4, with “needed.” for “needed. The number of dead and live insects was investigated 96 hours later.”

[12] = tested on: Aphis citricola van der Goot nymphs; experiment: Joint toxicity of I-72 + nicotine, Example 72, Table 72; conditions: A = compound I-72, B = nicotine, apple leaf spraying, 48 hours
Method: Test target: Aphis citricola van der Goot nymphs.
as §2
as §8, with “apple” for “cabbage”, “Aphis citricola van der Goot” for “Myzus persicae (Sulzer)”, “mL” for “mL of the solution”
as §4, with “48” for “96”

[13] = tested on: adult Bemisia tabaci (Gennadius); experiment: Joint toxicity of I-72 + pyraclostrobin, cotton seedling spraying, Example 83, Table 83; conditions: 72 h
Method: as §2
The corrected mortality rate was calculated using the Abbott's formula, and statistical analysis was performed with the DPS data processing software to obtain the toxicity regression equation and LC50 value of each single test pesticide and each mixture of different ratios.

[14] = tested on: Unaspis yanonensis Kuwana nymphs; experiment: Joint toxicity of I-72 + afidopyropen, Example 76, Table 76; conditions: A = compound I-72, B = afidopyropen; citrus leaf dipping; 120 hours
Method: Test target: Unaspis yanonensis Kuwana nymphs.
as §2
Experimental method: the activity of the mixture against Unaspis yanonensis Kuwana nymphs on citrus was determined by adopting the dipping method. First, the collected citrus leaves with Unaspis yanonensis Kuwana nymphs were treated with the pesticide solution in the order from low dosage to high dosage according to the experimental design. After air-drying, the petioles were kept moist with degreased cotton, and then the leaves were placed in a Petri dish, with 3 replicates for each treatment. In addition, a blank control was set up.
as §4, with “120” for “96”

Question: Which LC50 [1] does the source give for `CC(=O)N1C(=O)N(NCc2cccnc2)Cc2cc(C(F)(C(F)(F)F)C(F)(F)F)ccc21` [pyrifluquinazon] here?
Answer: Its LC50 is 10.6205 µg/mL.

Question: How did the LC50 [2] turn out when `CC(C)(C)c1ccc(CSc2cnn(C(C)(C)C)c(=O)c2Cl)cc1` [pyridaben] was run?
Answer: The LC50 was 10.8 µg/mL.

Question: For `N#Cc1c[nH]cc1-c1cccc2c1OC(F)(F)O2` [fludioxonil], which LC50 ([3]; Agrotis ipsilon, A = compound I-72, B = fludioxonil, 72 hours, read-out: LC50) is on record?
Answer: Its LC50 is 391 µg/mL.

Question: Which results are given for `N#CCNC(=O)c1cnccc1C(F)(F)F` [flonicamid]?
Answer: LC50 [4]: 2.3954 µg/mL; LC50 [5]: 50.8013 µg/mL

Question: How did the LC50 [6] turn out when `COCC(=O)N(c1c(C)cccc1C)[C@H](C)C(=O)OC` [metalaxyl-M] was run?
Answer: The LC50 was 401.2975 µg/mL (≈ 1440 µM).

Question: What does the source list for `CC1=NNC(=O)N(/N=C/c2cccnc2)C1` [pymetrozine]?
Answer: LC50 [7]: 5.51 µg/mL; LC50 [8]: 300 µg/mL

Question: Which LC50 [9] does the source give for `N#C/N=C1\SCCN1Cc1ccc(Cl)nc1` [thiacloprid] here?
Answer: The LC50 was 6.26 µg/mL.

Question: For `O=c1c(-c2cccc(C(F)(F)F)c2)c([O-])[n+](Cc2cncnc2)c2ccccn12` [triflumezopyrim], which LC50 [10] is on record?
Answer: The LC50 was 0.8838 µg/mL.

Question: With `CCn1nc(C)cc1/C(OC(=O)C(C)(C)C)=C(/C#N)c1ccc(C(C)(C)C)cc1` [cyetpyrafen] as the molecule, how does the LC50 [11] read?
Answer: Its LC50 is 0.6118 µg/mL.

Question: `CN1CCC[C@H]1c1cccnc1` [nicotine] was tested. Which LC50 [12] did it give?
Answer: Its LC50 is 8.19 µg/mL.

Question: Which LC50 ([3]; A = compound I-72, B = SYP-1620, 72 hours) does the source give for `CNC(=O)/C(=N/OC)c1ccccc1CO/N=C(C)/C=C/c1c(Cl)cccc1Cl` [SYP-1620] here?
Answer: Its LC50 is 361.2037 µg/mL.

Question: For `COC(=O)N(OC)c1ccccc1COc1ccn(-c2ccc(Cl)cc2)n1` [pyraclostrobin], which LC50 [13] is on record?
Answer: The LC50 was 424 µg/mL.

Question: For `C[C@]1(COC(=O)C2CC2)[C@@H]2C[C@H](O)[C@@]3(C)Oc4cc(-c5cccnc5)oc(=O)c4[C@H](O)[C@@H]3[C@@]2(C)CC[C@@H]1OC(=O)C1CC1` [afidopyropen], which LC50 [14] is on record?
Answer: Its LC50 is 2.8361 µg/mL.

Reference: patent US20260198495A1, “BINARY INSECTICIDE COMPOSITION AND USE THEREOF” (SHENYANG SINOCHEM AGROCHEMICALS R & D CO., LTD., priority 2022, published 2026)
